Measurements as given in patent US9868717B2, “Tricyclic sulphonamide compounds and methods of making and using same” (Zafgen, Inc., priority 2012, dated 2018).

Target: T1, Human recombinant MetAP2 (Homo sapiens, UniProt P50579)
T1 construct: made in house; host or cells: Sf9 insect cells
Assay: inhibition of recombinant human MetAP2 activity (MAS substrate, amino acid oxidase/Amplex red fluorescence)
Format: biochemical
Details: manganese enzyme, 30 minutes at 25° C., pH 7.5, 0.75 mM MAS substrate, 1% DMSO
Experimental: Compounds are tested for their capacity to inhibit recombinant human MetAP2 activity using the following assay.
Human recombinant MetAP2 expressed in Sf9 cells followed by affinity purification and EDTA treatment to remove endogenous active site cation was dialysed against MnCl2 to produce the manganese enzyme used in the assay. The assay was carried out for 30 minutes at 25° C. in 50 mM HEPES buffer containing 100 mM NaCl, pH 7.5 the presence of 0.75 mM Methionine-Alanine-Serine (MAS) substrate and 50 μg/ml amino acid oxidase using a dilution of purified MetAP2 giving >3-fold signal:noise. Cleavage of the substrate by MetAP2 and oxidation of free methionine by amino acid oxidase was detected and quantified using fluorescence generated by Amplex red (10-acetyl-3,7-dihydroxyphenoxazine) in combination with horseradish peroxidase which detects H2O2 released during the oxidation step. The fluorescent signal was detected using a multiwell fluorimeter. Compounds were diluted in DMSO prior to addition to assay buffer, the final DMSO concentration in the assay being 1%.
The IC50 is defined as the concentration at which a given compound achieves 50% inhibition of control. IC50 values are calculated using the XLfit software package (version 2.0.5).

T1 sequence (P50579 whole entry): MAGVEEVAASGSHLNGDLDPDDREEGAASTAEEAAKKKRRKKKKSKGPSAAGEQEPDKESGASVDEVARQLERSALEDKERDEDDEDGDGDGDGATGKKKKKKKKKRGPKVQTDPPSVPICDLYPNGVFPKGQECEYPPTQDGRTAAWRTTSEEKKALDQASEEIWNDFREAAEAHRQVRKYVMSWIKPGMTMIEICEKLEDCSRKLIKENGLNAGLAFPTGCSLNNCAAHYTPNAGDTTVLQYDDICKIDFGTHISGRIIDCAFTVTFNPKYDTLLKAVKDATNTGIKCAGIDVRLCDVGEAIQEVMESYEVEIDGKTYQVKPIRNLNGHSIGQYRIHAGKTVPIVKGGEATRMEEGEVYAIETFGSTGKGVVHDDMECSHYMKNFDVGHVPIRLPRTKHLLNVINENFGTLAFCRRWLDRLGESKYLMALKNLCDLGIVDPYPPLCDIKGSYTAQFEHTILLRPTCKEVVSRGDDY

| SMILES | IC50 | further results |
| --- | --- | --- |
| O=C(O)c1c(NS(=O)(=O)c2ccc(F)cc2/C=C2\CN3CCC2CC3)ccc2c1OC[C@@H]1C[C@H]21 (single isomer, unassigned) [Example 10] | < 50 nM |  |
| O=C(O)c1c(NS(=O)(=O)c2ccc(F)cc2/C=C2/CN3CCC2CC3)ccc2c1OC[C@@H]1C[C@H]21 (single isomer, unassigned) [Example 11] | < 50 nM |  |
| CCN1CCC/C(=C\c2cc(F)ccc2S(=O)(=O)Nc2ccc3c(c2C(=O)O)OC[C@@H]2C[C@H]32)C1 (single isomer, unassigned) [Example 12] | < 50 nM |  |
| CCN1CCC/C(=C/c2cc(F)ccc2S(=O)(=O)Nc2ccc3c(c2C(=O)O)OC[C@@H]2C[C@H]32)C1 (single isomer, unassigned) [Example 13] | 50 to 500 nM |  |
| CCN1CCCC(Cc2cc(F)ccc2S(=O)(=O)Nc2ccc3c(c2C(=O)O)OCC2CC32)C1 (single isomer, unassigned) [Example 14] | < 50 nM |  |
| CCN1CCCC(Cc2cc(F)ccc2S(=O)(=O)Nc2ccc3c(c2C(=O)O)OCC2CC32)C1 (single isomer, unassigned) [Example 15] | < 50 nM |  |
| CCN1[C@@H]2CC[C@H]1C[C@@H](Cc1cc(F)ccc1S(=O)(=O)Nc1ccc3c(c1C(=O)O)OC[C@@H]1C[C@H]31)C2 (single isomer, unassigned) [Example 18] | < 50 nM |  |
| CCN1[C@@H]2CC[C@H]1C[C@H](Cc1cc(F)ccc1S(=O)(=O)Nc1ccc3c(c1C(=O)O)OC[C@@H]1C[C@H]31)C2 (single isomer, unassigned) [Example 19] | < 50 nM |  |
| CCN1CCC(NC(=O)Cc2cc(F)ccc2S(=O)(=O)Nc2ccc3c(c2C(=O)O)OC[C@@H]2C[C@H]32)C1 (stereo in doubt) [Example 30, (1aR,7bS)-5-{2-[((S)-1-Ethylpyrrolidin-3-ylcarbamoyl)methyl]-4-fluoro-benzenesulfonylamino}-1,1a,2,7b-tetrahydrocyclopropa[c]chromene-4-carboxylic acid] | < 50 nM |  |
| CCN(CC)CC1CC1c1cc(F)ccc1S(=O)(=O)Nc1ccc2c(c1C(=O)O)OC[C@@H]1C[C@H]21 (stereo partly drawn) [Example 1, (1aR,7bS)-5-[2-(2-Diethylaminomethylcyclopropyl)-4-fluorobenzenesulfonyl-amino]-1,1a,2,7b-tetrahydrocyclopropa[c]chromene-4-carboxylic acid] | 50 to 500 nM |  |
| CCN(CC)CC1CC1c1cc(F)ccc1S(=O)(=O)Nc1ccc2c(c1C(=O)O)OC[C@@H]1C[C@H]21 (stereo partly shown) [Example 2] |  | IC50 (listed as First eluting enantiomer of (1aR,7bS)-5-[2-(2-diethylamino-methylcyclopropyl)-4-): < 50 nM |
| CCN(CC)CC1CC1c1cc(F)ccc1S(=O)(=O)Nc1ccc2c(c1C(=O)O)OC[C@@H]1C[C@H]21 (stereo partly shown) [Example 3] |  | IC50 (listed as Second eluting enantiomer of (1aR,7bS)-5-[2-(2-diethylamino-methylcyclopropyl)-4): 50 to 500 nM |
| O=C(O)c1c(NS(=O)(=O)c2ccc(F)cc2C2CC2CN2CCCC2)ccc2c1OC[C@@H]1C[C@H]21 (stereo partly drawn) [Example 4, (1aR,7bS)-5-{4-Fluoro-2-[2-(pyrrolidin-1-ylmethyl)cyclopropyl]benzene-sulfonylamino}-1,1a,2,7b-tetrahydrocyclopropa[c]chromene-4-carboxylic acid] | 50 to 500 nM |  |
| CCN(CC)CC(C)(C)Cc1cc(F)ccc1S(=O)(=O)Nc1ccc2c(c1C(=O)O)OC[C@@H]1C[C@H]21 [Example 5, (1aR,7bS)-5-[2-(3-Diethylamino-2,2-dimethylpropyl)-4-fluorobenzenesulfonyl-amino]-1,1a,2,7b-tetrahydrocyclopropa[c]chromene-4-carboxylic acid] | < 50 nM |  |
| O=C(O)c1c(NS(=O)(=O)c2ccc(F)cc2C[C@@H]2CCNC2)ccc2c1OC[C@@H]1C[C@H]21 [Example 6, (1aR,7bS)-5-[4-Fluoro-2-((R)-pyrrolidin-3-ylmethyl)benzenesulfonylamino]-1,1a,2,7b-tetrahydrocyclopropa[c]chromene-4-carboxylic acid] | < 50 nM |  |
| O=C(O)c1c(NS(=O)(=O)c2ccc(F)cc2C[C@H]2CCNC2)ccc2c1OC[C@@H]1C[C@H]21 [Example 7, (1aR,7bS)-5-[4-Fluoro-2-((S)-pyrrolidin-3-ylmethyl)benzenesulfonylamino]-1,1a,2,7b-tetrahydrocyclopropa[c]chromene-4-carboxylic acid] | < 50 nM |  |
| CC(C)(O)CN1CC[C@@H](Cc2cc(F)ccc2S(=O)(=O)Nc2ccc3c(c2C(=O)O)OC[C@@H]2C[C@H]32)C1 [Example 8, (1aR,7bS)-5-{4-Fluoro-2-[(R)-1-(2-hydroxy-2-methylpropyl)pyrrolidin-3-ylmethyl]benzenesulfonylamino}-1,1a,2,7b-tetrahydrocyclopropa[c]chromene-4-carboxylic acid] | < 50 nM |  |
| O=C(O)c1c(NS(=O)(=O)c2ccc(F)cc2CC2CN3CCC2CC3)ccc2c1OC[C@@H]1C[C@H]21 (stereo partly drawn) [Example 9, (1aR,7bS)-5-[2-(1-Azabicyclo[2.2.2]oct-3-ylmethyl)-4-fluorobenzenesulfonyl-amino]-1,1a,2,7b-tetrahydrocyclopropa[c]chromene-4-carboxylic acid] | < 50 nM |  |
| CCN1CCC[C@@H]1CCc1cc(F)ccc1S(=O)(=O)Nc1ccc2c(c1C(=O)O)OC[C@@H]1C[C@H]21 [Example 16, (1aR,7bS)-5-{2-[2-((S)-1-Ethylpyrrolidin-2-yl)ethyl]-4-fluorobenzene-sulfonylamino}-1,1a,2,7b-tetrahydrocyclopropa[c]chromene-4-carboxylic acid] | < 50 nM |  |
| O=C(O)c1c(NS(=O)(=O)c2ccc(F)cc2C[C@@H]2CCN(CCO)C2)ccc2c1OC[C@@H]1C[C@H]21 [Example 17, (1aR,7bS)-5-{4-Fluoro-2-[(R)-1-(2-hydroxyethyl)pyrrolidin-3-ylmethyl]-benzenesulfonylamino}-1,1a,2,7b-tetrahydrocyclopropa[c]chromene-4-carboxylic acid] | < 50 nM |  |
| CC1(O)CCN(C/C=C\c2cc(F)ccc2S(=O)(=O)Nc2ccc3c(c2C(=O)O)OC[C@@H]2C[C@H]32)C1 (stereo partly drawn) [Example 20, (1aR,7bS)-5-{4-Fluoro-2-[(Z)-3-(3-hydroxy-3-methylpyrrolidin-1-yl)prop-1-enyl]benzenesulfonylamino}-1,1a,2,7b-tetrahydrocyclopropa[c]chromene-4-carboxylic acid] | < 50 nM |  |
| O=C(O)c1c(NS(=O)(=O)c2ccc(F)cc2/C=C\CN2CCC(O)CC2)ccc2c1OC[C@@H]1C[C@H]21 [Example 21, (1aR,7bS)-5{4-Fluoro-2-[(Z)-3-(4-hydroxypiperidin-1-yl)prop-1-enyl]benzenesulfonylamino}-1,1a,2,7b-tetrahydrocyclopropa[c]chromene-4-carboxylic acid] | 50 to 500 nM |  |
| CC1(O)CCN(C/C=C\c2cc(F)ccc2S(=O)(=O)Nc2ccc3c(c2C(=O)O)OC[C@@H]2C[C@H]32)CC1 [Example 22, (1aR,7bS)-5-{4-Fluoro-2-[(Z)-3-(4-hydroxy-4-methylpiperidin-1-yl)prop-1-enyl]benzenesulfonylamino}-1,1a,2,7b-tetrahydrocyclopropa[c]chromene-4-carboxylic acid] | 50 to 500 nM |  |
| CCN1CC2C(C1)C2c1cc(F)ccc1S(=O)(=O)Nc1ccc2c(c1C(=O)O)OC[C@@H]1C[C@H]21 (stereo partly drawn) [Example 23, (1aR,7bS)-5-[2-(3-Ethyl-3-azabicyclo[3.1.0]hex-6-yl)-4-fluorobenzene-sulfonylamino]-1,1a,2,7b-tetrahydrocyclopropa[c]chromene-4-carboxylic acid] | 50 to 500 nM |  |
| O=C(O)c1c(NS(=O)(=O)c2ccc(F)cc2/C=C\[C@@H]2CCCN2)ccc2c1OC[C@@H]1C[C@H]21 [Example 24, (1aR,7bS)-5-{4-Fluoro-2-[(Z)-2-((S)-pyrrolidin-2-yl)ethenyl]benzenesulfonyl-amino}-1,1a,2,7b-tetrahydrocyclopropa[c]chromene-4-carboxylic acid] | < 50 nM |  |
| O=C(O)c1c(NS(=O)(=O)c2ccc(F)cc2/C=C\CN2CC[C@H](CO)C2)ccc2c1OC[C@@H]1C[C@H]21 [Example 25, (1aR,7bS)-5-{4-Fluoro-2-[(Z)-3-((S)-3-hydroxymethylpyrrolidin-1-yl)prop-1-enyl]benzenesulfonylamino}-1,1a,2,7b-tetrahydrocyclopropa[c]chromene-4-carboxylic acid] | < 50 nM |  |
| O=C(O)c1c(NS(=O)(=O)c2ccc(F)cc2/C=C\CN2CC[C@@H](CO)C2)ccc2c1OC[C@@H]1C[C@H]21 [Example 26, (1aR,7bS)-5-{4-Fluoro-2-[(Z)-3-((R)-3-hydroxymethylpyrrolidin-1-yl)prop-1-enyl]benzenesulfonylamino}-1,1a,2,7b-tetrahydrocyclopropa[c]chromene-4-carboxylic acid] | < 50 nM |  |
| CC(C)(O)[C@H]1CCN(C/C=C\c2cc(F)ccc2S(=O)(=O)Nc2ccc3c(c2C(=O)O)OC[C@@H]2C[C@H]32)C1 [Example 27, (1aR,7bS)-5-(4-Fluoro-2-{(Z)-3-[(S)-3-(2-hydroxypropan-2-yl)pyrrolidin-1-yl]prop-1-enyl}benzenesulfonylamino)-1,1a,2,7b-tetrahydrocyclopropa[c]chromene-4-carboxylic acid] | < 50 nM |  |
